Where two headings read alike, the source gives them in different places.
Experiments:
[1] = target: T1, ERα (Homo sapiens, UniProt P03372); test: Estrogen receptor-alpha (ERα) degradation assay in MCF7 cells using In-Cell Western assay; type: cell-based; design: assessed for their activity in degrading ERα in MCF-7 cells via western blot; endogenous in cells; host or cells: MCF7 cells; details: ER-alpha degradation in MCF7 cells, 5 days of incubation
T1 sequence (P03372 1-595): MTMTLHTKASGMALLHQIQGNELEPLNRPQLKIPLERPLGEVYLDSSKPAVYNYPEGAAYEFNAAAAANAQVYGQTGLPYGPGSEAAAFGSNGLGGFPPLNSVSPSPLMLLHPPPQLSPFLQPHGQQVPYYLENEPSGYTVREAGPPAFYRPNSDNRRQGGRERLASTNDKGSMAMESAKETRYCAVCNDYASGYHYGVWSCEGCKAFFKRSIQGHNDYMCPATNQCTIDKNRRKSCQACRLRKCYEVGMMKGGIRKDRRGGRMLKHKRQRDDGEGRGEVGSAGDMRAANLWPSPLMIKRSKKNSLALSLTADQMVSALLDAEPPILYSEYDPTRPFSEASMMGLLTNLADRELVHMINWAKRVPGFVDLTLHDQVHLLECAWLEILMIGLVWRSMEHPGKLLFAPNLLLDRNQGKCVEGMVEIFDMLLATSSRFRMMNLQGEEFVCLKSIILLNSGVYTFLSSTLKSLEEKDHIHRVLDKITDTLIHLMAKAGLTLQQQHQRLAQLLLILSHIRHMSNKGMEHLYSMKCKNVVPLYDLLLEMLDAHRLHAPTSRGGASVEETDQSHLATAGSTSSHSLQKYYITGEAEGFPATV
Description: Estrogen Receptor-Alpha (ERα) Degradation Assay Using in-Cell Western™ Assay for Table 5.
Degradation of ERα by claimed compounds were determined in MCF7 cells using an In-Cell Western™ assay. Briefly, MCF7 cells were plated in 96-well plates (2000 cells per well in 100 μl media) and incubated at 37° C. under an atmosphere of 5% CO2 in a humidified incubator overnight. One-hundred (100) μI of media containing test compound (at 2x concentration) was added to the appropriate wells to provide 11 serially decreasing concentrations (top final concentration, 1 μM then 3-fold less for the next 10 concentrations); a vehicle control (DMSO) was also added for each compound. For each experiment, all compounds were assayed on duplicate plates. Cells were then incubated for 3 or 5 days in the above-mentioned environment. The assay was terminated by removal of media, a single wash with ice-cold PBS and the addition of 50 μl paraformaldehyde (PFA: 4% in PBS). After 15 minutes in PFA at room temperature, the cells were permeabilized in Tris-phosphate-buffered saline with Tween (0.1%) (TBST) supplemented with Triton X-100 (0.5%) for 15 minutes. Cells were then blocked in BSA (TBST with BSA, 3%) for one hour. Primary antibodies for the detection of ERa (rabbit monoclonal, 1:1000, Cell Signaling Technology Catalog #8644) and tubulin (mouse monoclonal, 1:5000, Sigma Catalog #T6074) in TBST with BSA (3%) were added. The cells were incubated overnight at 4° C. The cells were then washed thrice with TBST at room temperature and then incubated with anti-rabbit and anti-mouse fluorescently-labelled secondary antibodies (IRDye®; LI-COR; Lincoln, Nebr.) in LI-COR blocking buffer (Catalog #927-50000) for one hour at room temperature. Following 3 washes with TBST, the buffer was removed and the plates were read on an Odyssey® infrared imaging system (LI-COR®, Lincoln, Nebr.) at 700 nm and 800 nm. Using commercial software (ImageStudio™; LI-COR, Lincoln, Nebr.), the staining intensity for ERa and tubulin in each well was quantified and exported for analysis. For each data point, ERa intensity was normalized to tubulin intensity and for each compound all normalized intensity values were normalized to the vehicle control. DC50 and Dmax values were determined following a 4-parameter IC50 curve fit using ACAS dose response module (McNeil & Co Inc.).

[2] = target: T1, ERα; test: ERE luciferase reporter gene assay in T47D-KBluc cells (target engagement); type: cell-based; design: T47D human breast cancer cells stably transfected with estrogen responsive element/promoter/luciferase reporter gene; host or cells: T47D-KBluc cells; details: 10% FBS, 24 hours, read-out: ER-α Luciferase IC50
In short: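 T47D-KBluc breast cancer cells, which carry a stable ERE-luciferase reporter, were grown in RPMI with 10% FBS (about 10 pM estrogen) and exposed to PROTACs for 24 h. The 12-point, 3-fold series ran from 300 nM to 2 pM. Luciferase was read after lysis, and IC50 was fitted from duplicates.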

[3] = Table 3 cereblon centric PROTACs

| SMILES | DC50 [1] | Dmax [1] | IC50 [2, 3] | IC50 ([2]; Table 1 cereblon centric PROTACs) |
| --- | --- | --- | --- | --- |
| O=C1CCC(N2Cc3cc(N4CCN(C5CCN(CCOc6ccc(Oc7c(-c8ccc(Br)cc8)sc8cc(O)ccc78)cc6)CC5)CC4)ccc3C2=O)C(=O)N1 (stereo not drawn) [Compound 194, 3-[5-[4-[1-[2-[4-[2-(4-bromophenyl)-6-hydroxybenzothiophen-3-yl]oxyphenoxy]ethyl]-4-piperidyl]piperazin-1-yl]-1-oxo-isoindolin-2-yl]piperidine-2,6-dione] | 1 to 10 nM | > 75% | 3.9 nM |  |
| O=C1CCC(N2C(=O)c3ccc(NCCCN4CCCN(CCOc5ccc(Oc6c(-c7ccc(Br)cc7)sc7cc(O)ccc67)cc5)CC4)cc3C2=O)C(=O)N1 (stereo not drawn) [Compound 178, 5-[3-[4-[2-[4-[2-(4-bromophenyl)-6-hydroxy-benzothiophen-3-yl]oxyphenoxy]ethyl]-1,4-diazepan-1-yl]propylamino]-2-(2,6-dioxo-3-piperidyl)isoindoline-1,3-dione] | 1 to 10 nM | > 75% | 2.4 nM |  |
| COc1ccc(-c2sc3cc(O)ccc3c2Oc2ccc(N3CCC(CN4CCN(c5ccc6c(c5)CN(C5CCC(=O)NC5=O)C6=O)CC4)CC3)cc2)cc1 (stereo not drawn) [Compound 234, 3-[5-[4-[[1-[4-[6-hydroxy-2-(4-methoxyphenyl)benzothiophen-3-yl]-oxyphenyl]-4-piperidyl]methyl]piperazin-1-yl]-1-oxo-isoindolin-2-yl]piperidine-2,6-dione] | < 1 nM | 50 to 75% | 0.65 nM |  |
| O=C1CCC(N2Cc3cc(N4CCN(CC5CCN(c6ccc(Oc7c(-c8ccc(F)cc8)sc8cc(O)ccc78)cn6)CC5)CC4)ccc3C2=O)C(=O)N1 (stereo not drawn) [Compound 232, 3-[5-[4-[[1-[5-[2-(4-fluorophenyl)-6-hydroxy-benzothiophen-3-yl]oxy-2-pyridyl]-4-piperidyl]methyl]piperazin-1-yl]-1-oxo-isoindolin-2-yl]piperidine-2,6-dione] | < 1 nM | > 75% | 1.6 nM |  |
| O=C1CCC(N2Cc3cc(N4CCC(CN5CC(c6ccc(Oc7c(-c8ccc(Br)cc8)sc8cc(O)ccc78)cc6)C5)CC4)ccc3C2=O)C(=O)N1 (stereo not drawn) [Compound 216, 3-[5-[4-[[3-[4-[2-[4-bromophenyl)-6-hydroxy-benzothiophen-3-yl]oxyphenyl]azetidin-1-yl]methyl]-1-piperidyl]-1-oxo-isoindolin-2-yl]piperidine-2,6-dione] | 1 to 10 nM | 50 to 75% | 2.7 nM |  |
| O=C1CCC(N2Cc3cc(N4CCN(CC5CCN(c6ccc(Oc7c(-c8ccc(Br)cc8)sc8cc(O)ccc78)cc6)CC5)CC4)ccc3C2=O)C(=O)N1 (stereo not drawn) [Compound 231, 3-[5-[4-[[1-[4-[2-(4-bromophenyl)-6-hydroxy-benzothiophen-3-yl]oxyphenyl]-4-piperidyl]methyl]piperazin-1-yl]-1-oxo-isoindolin-2-yl]piperidine-2,6-dione] | 1 to 10 nM | 50 to 75% | 7.1 nM |  |
| O=C1CCC(N2Cc3cc(N4CCN(CCCOc5ccc(Oc6c(-c7ccc(F)c(F)c7)sc7cc(O)ccc67)cc5)CC4)ccc3C2=O)C(=O)N1 (stereo not drawn) [Compound 221, 3-[5-[4-[3-[4-[2-(3,4-difluorophenyl)-6-hydroxy-benzothiophen-3-yl]oxyphenoxy]propyl]piperazin-1-yl]-1-oxo-isoindolin-2-yl]piperidine-2,6-dione] | 1 to 10 nM | 50 to 75% | 2.4 nM |  |
| O=C1CCC(N2Cc3cc(N4CCN(CC5CCN(c6ccc(Oc7c(-c8ccc(O)cc8)sc8cc(O)ccc78)cc6)CC5)CC4)ccc3C2=O)C(=O)N1 (stereo not drawn) [Compound 244, 3-[5-[4-[[1-[4-(6-hydroxy-2-(4-hydroxyphenyl)benzothiophen-3-yl]oxyphenyl]-4-piperidyl]methyl]piperazin-1-yl]-1-oxo-isoindolin-2-yl]piperidine-2,6-dione] | 1 to 10 nM | 50 to 75% | 0.18 nM |  |
| O=C1CCC(N2C(=O)c3ccc(N4CCC(CN5CC(c6ccc(Oc7c(-c8ccc(Br)cc8)sc8cc(O)ccc78)cc6)C5)CC4)cc3C2=O)C(=O)N1 (stereo not drawn) [Compound 214] | 1 to 10 nM | 50 to 75% | 10.4 nM |  |
| O=C1CCC(N2Cc3cc(N4CCN(CC5CCN(c6ccc(Oc7c(-c8ccc(Br)cc8)sc8cc(O)ccc78)cc6F)CC5)CC4)ccc3C2=O)C(=O)N1 (stereo not drawn) [Compound 238, 3-[5-[4-[[1-[4-[2-(4-bromophenyl)-6-hydroxy-benzothiophen-3-yl]oxy-2-fluoro-phenyl]-4-piperidyl]methyl]piperazin-1-yl]-1-oxo-isoindolin-2-yl]piperidine-2,6-dione] | 10 to 100 nM | > 75% | 10.9 nM |  |
| O=C1CCC(N2Cc3nc(N4CCN(CC5CCN(c6ccc(Oc7c(-c8ccc(O)cc8)sc8cc(O)ccc78)cc6)CC5)CC4)ccc3C2=O)C(=O)N1 (stereo not drawn) [Compound 243, 3-[2-[4-[[1-[4-[6-hydroxy-2-(4-hydroxyphenyl)benzothiophen-3-yl]oxyphenyl]-4-piperidyl]methyl]piperazin-1-yl]-5-oxo-7H-pyrrolo[3,4-b]pyridin-6-yl]piperidine-2,6-dione] | 1 to 10 nM | 50 to 75% | 0.18 nM |  |
| O=C1CCC(N2Cc3cc(N4CCN(C5CC(Oc6ccc(Oc7c(-c8ccc(Br)cc8)sc8cc(O)ccc78)cc6)C5)CC4)ccc3C2=O)C(=O)N1 (stereo not drawn) [Compound 224, 3-[5-[4-[3-[4-[2-(4-bromophenyl)-6-hydroxy-benzothiophen-3-yl]oxyphenoxy]cyclobutyl]piperazin-1-yl]-1-oxo-isoindolin-2-yl]piperidine-2,6-dione] | 1 to 10 nM | 50 to 75% | 7.7 nM |  |
| O=C1CCC(N2Cc3c(ccc(N4CCN(CC5CCN(CCOc6ccc(Oc7c(-c8ccc(C(F)(F)F)cc8)sc8cc(O)ccc78)cc6)CC5)CC4)c3F)C2=O)C(=O)N1 (stereo not drawn) [Compound 201, 3-[4-fluoro-5-[4-[[1-[2-[4-[6-hydroxy-2-[4-(trifluoromethyl)phenyl]benzothiophen-3-yl]oxyphenoxy]ethyl]-4-piperidyl]methyl]piperazin-1-yl]-1-oxo-isoindolin-2-yl]piperidine-2,6-dione] | 10 to 100 nM | > 75% | 8.4 nM |  |
| COc1ccc(-c2sc3cc(O)ccc3c2Oc2ccc(OCCN3CCN(CCCNc4ccc5c(c4)CN(C4CCC(=O)NC4=O)C5=O)CC3)cc2)cc1 (stereo not drawn) [Compound 180, 3-[5-[3-[4-[2-[4-[6-hydroxy-2-(4-methoxyphenyl)benzothiophen-3-yl]oxyphenoxy]ethyl]piperazin-1-yl]propylamino]-1-oxo-isoindolin-2-yl]piperidine-2,6-dione] | < 1 nM | > 75% | 0.22 nM |  |
| O=C1CCC(N2Cc3cc(OCCOCCOc4ccc(Oc5c(-c6ccc(Br)cc6)sc6cc(O)ccc56)cc4)ccc3C2=O)C(=O)N1 (stereo not drawn) [Compound 33, 3-[5-[2-[2-[4-[2-(4-bromophenyl)-6-hydroxy-benzothiophen-3-yl]oxyphenoxy]ethoxy]ethoxy]-1-oxo-isoindolin-2-yl]piperidine-2,6-dione] | 1 to 10 nM | 50 to 75% |  | 2.7 nM |

Source: US11384063B2, “Modulators of estrogen receptor proteolysis and associated methods of use” (Arvinas Operations, Inc., priority 2017, dated 2022)
